Experimental data from patent publication US20120258141A9, “Methods Of Immune Modulation” (UNIVERSITY OF MEDICINE AND DENTISTRY OF NEW JERSEY, priority 2010, published 2012).
≈ marks a conversion by molar mass, not a printed value. Entries after “also recorded” stand apart in the source; their conditions may differ.

Key:
[1] = test system: LPS-mediated TNF-α production, macrophage cell line; conditions: macrophage cells; cited from earlier work
[2] = test system: IL-8 mRNA; assay: IL-8 mRNA levels by QPCR in OKF6/TERT cells; type: cell-based, Human; conditions: IL-1β-treated cells, normalized to β2-Microglobulin, FIG. 4A
Protocol: Total cellular RNA was isolated from cultures using QIAshredder and RNeasy Mini Kit (Qiagen Valencia, Calif.). Total RNA was reversed transcribed using Superscript II reverse transcriptase kit as described by the manufacturer (Invitrogen, CA). Quantitative PCR (qPCR) was carried out using SYBR Green in a MyiQ iCycler (Bio-Rad). A total of 1 μl of cDNA (described above) was analyzed using final concentration of 100 nM of primers, 2×SYBR Green PCR Master Mix (Applied Biosystems, Foster City, Calif., USA) in volume of 20 μl. Prmer sequences were:
Amplification was carried out for 50 cycles (95° C., 15 seconds; 60° C., 60 seconds). The relative for mRNA expression in each sample was calculated based on its Ct value comparison to Ct of a housekeeping gene. […]
To examine the effect of mPE on the inflammatory response, gingival epithelial cells (the OKF6/TERT cell line) and the monocytic cell line, THP-1, were treated with rhIL-1β (100 ng/ml) in the presence of increasing concentrations (0, 2, or 5 ng/ml) of mPE. Secreted levels of IL-8 were measured by ELISA. […] This was not a result of cytotoxicity, as cell viability (as measured by XTT assay and trypan blue exclusion) was no lower than 93-96% at the highest concentration of mPE. To determine whether this was due to an effect on IL-8 secretion or on gene regulation, mRNA was isolated from treated cells IL-8 mRNA levels were quantified by QPCR. […]

[3] = test system: P. gingivalis biofilms; assay: Activity against P. gingivalis biofilms (XTT metabolic assay, crystal violet); type: cell-based, Porphyromonas gingivalis
Protocol: Aggregatibacter actinomycetemcomitans 1005 (Aa) (obtained from Dr. Helen Schreiner, New Jersey Dental School) were cultured on TSB agar (4% trypticase soy broth, 0.6% yeast extract, 0.8% dextrose, 0.4% NaHCO3, 75 μg/mL bactracin, 5 μg/mL vancomycin) at 37° C., 10% CO2. Single colonies were inoculated to TSB broth in 75-cm^2 tissue culture flasks. Biofilm was harvest upon the 90% confluence and resuspended into 1 mL PBS. Resuspension was vortexed vigorously for 1 minute and allowed to settle for 10 minutes. The supernatant was then diluted to 2.5×10^7 before seeded to 96-well plates to obtain even biofilms. […]
To test the activity against P. gingivalis biofilms, strain 381 was grown in 96-well plates under conditions (i.e., grown in a 96-well plate for 21 days in an anaerobic chamber in Brain Heart Infusion (BHI) medium) that favor biofilm formation (Davey, Periodontol 2000, 2006, 42, 27-35). mPE was added in serial dilutions, incubated anaerobically for 24 hours, and the medium was replaced with XTT in RPMI. Metabolic activity was quantified as above. To confirm the ability of XTT to measure activity in the biofilm, the growth medium was removed, and biomass was quantified by crystal violet staining, followed by destaining and quantification of the optical density. Staining was quantified by reading A600. […]

[4] = test system: OKF6/TERT and THP-1 cells; assay: Cell viability by XTT assay and trypan blue exclusion; type: cell-based, Human; conditions: highest concentration of mPE
Protocol: To examine the effect of mPE on the inflammatory response, gingival epithelial cells (the OKF6/TERT cell line) and the monocytic cell line, THP-1, were treated with rhIL-1β (100 ng/ml) in the presence of increasing concentrations (0, 2, or 5 ng/ml) of mPE. Secreted levels of IL-8 were measured by ELISA. […] The experiment was carried out in quadruplicate; error bars represent±SD. The inhibition by mPE was significant at both concentrations with p<0.01. […] This was not a result of cytotoxicity, as cell viability (as measured by XTT assay and trypan blue exclusion) was no lower than 93-96% at the highest concentration of mPE. To determine whether this was due to an effect on IL-8 secretion or on gene regulation, mRNA was isolated from treated cells IL-8 mRNA levels were quantified by QPCR.

[5] = test system: IL-8 secretion, OKF6/TERT cell line; assay: IL-1β-induced IL-8 secretion (ELISA) in gingival epithelial cells; type: cell-based, Human
Protocol: (§1) The oral keratinocyte cell line OKF6/TERT (obtained from Dr. James Rhinewald, Harvard University) was cultured in Keratinocyte growth medium (Lonza) with hEGF, BPE (Bovine Pituitary Extract). Cells were subcultured in 6-well dishes 18 hours before stimulation. Cells were treated with 2 μg/mL, 5 μg/mL mPE with and without IL-1β stimulation (100 ng/mL, […]) for 2 hours, 4 hours and 18 hours. THP-1 cells were grown in suspension at RPMI 1640 with 10% FBS, and stimulated similarly.
(§2) Growth medium from stimulated cultures was collected either by aspiration (from keratinocytes) or after centrifugation at 1000 rpm for 15 minutes (for THP-1 cells). Cell debris was removed by centrifugation at 8,000 g (12,000 rpm) for 10 minutes at 4° C. To quantify IL-8 levels, the Human IL-8 Single Analyte ELISArray Kit (SA bioscience, MD) was used according to the manufacturer's protocol. The Cellular Activation of Signaling ELISA kit IKBα (SA bioscience, MD) was used to quantify both phosphorylated and whole IkBα levels in OKF6/TERT cells grown in a 96-well plate. All assays were performed in duplicate.
(§3) To examine the effect of mPE on the inflammatory response, gingival epithelial cells (the OKF6/TERT cell line) and the monocytic cell line, THP-1, were treated with rhIL-1β (100 ng/ml) in the presence of increasing concentrations (0, 2, or 5 ng/ml) of mPE. Secreted levels of IL-8 were measured by ELISA. […]

[6] = test system: P. gingivalis; conditions: planktonic form; cited from earlier work
[7] = test system: A. actinomycetemcomitans biofilms; assay: Activity against A. actinomycetemcomitans biofilms (XTT metabolic assay, crystal violet, plating); type: cell-based, Aggregatibacter actinomycetemcomitans
Protocol: Aggregatibacter actinomycetemcomitans 1005 (Aa) (obtained from Dr. Helen Schreiner, New Jersey Dental School) were cultured on TSB agar (4% trypticase soy broth, 0.6% yeast extract, 0.8% dextrose, 0.4% NaHCO3, 75 μg/mL bactracin, 5 μg/mL vancomycin) at 37° C., 10% CO2. Single colonies were inoculated to TSB broth in 75-cm^2 tissue culture flasks. Biofilm was harvest upon the 90% confluence and resuspended into 1 mL PBS. Resuspension was vortexed vigorously for 1 minute and allowed to settle for 10 minutes. The supernatant was then diluted to 2.5×10^7 before seeded to 96-well plates to obtain even biofilms. Porphyromonas gingivalis W381 (obtained from Dr. Christopher Cutler, Stony Brook University Dental School) were cultured on TSB-blood agar (3% trypticase soy broth, 5% defibrinated sheep blood, 5 hemin, 0.5 μg/mL menadione, and 0.2 mg/mL KNO3) in an anaerobic chamber (80% N2, 10% H2, and 10% CO2) at 37° C. For biofilm formation, the same protocol as Aa under anaerobic condition was used.
Aa biofilms were cultured into 96-well plates (tissue culture treated, Falcon) for 18 hours. Serial dilutions of the mimetic compounds were made in 100 μL RPMI-1640 without Phenol red and added directly to the wells. Plates were cultured at 37° C., 10% CO2 for 24 hours. Medium was removed, and cell viability was evaluated by XTT assay using the In Vitro Toxicology Assay Kit (Sigma) according to the manufacturer's protocol. Metabolic activity was measured by reading in a plate-reader at 450 nm. […] Colonies were counted after 72 hours. […]
To quantify the activity of AMP mimetics on biofilms, the activity against two bacterial species associated with periodontitis, A. actinomycetemcomitans and P. gingivalis was measured under conditions that lead to biofilm formation (Kaplan et al., J. Bacteriol. 2003, 185, 1399-1404; Davey, Periodontol 2000, 2006, 42, 27-35). […] After 24 hours, the growth medium was replaced with RPMI (without Phenol Red) and an XTT assay was carried out to quantify the metabolic activity. Metabolic activity was quantified by measuring the OD at 450 nm and 600 nm. […]

[8] = test system: oral pathogens, biofilm cultures of Streptococcus mutans; conditions: Gram-positive and -negative, incl. S. mutans biofilm cultures; cited from earlier work
[9] = test system: phosphorylated IκB / NF-κB activation; assay: IκB phosphorylation (CASE ELISA) in OKF6/TERT cells; type: cell-based, Human; conditions: 100 ng/ml IL-1β, 2 or 4 hours, 0, 2 or 5 μg/ml mPE, FIG. 4B
Protocol: Growth medium from stimulated cultures was collected either by aspiration (from keratinocytes) or after centrifugation at 1000 rpm for 15 minutes (for THP-1 cells). Cell debris was removed by centrifugation at 8,000 g (12,000 rpm) for 10 minutes at 4° C. To quantify IL-8 levels, the Human IL-8 Single Analyte ELISArray Kit (SA bioscience, MD) was used according to the manufacturer's protocol. The Cellular Activation of Signaling ELISA kit IKBα (SA bioscience, MD) was used to quantify both phosphorylated and whole IkBα levels in OKF6/TERT cells grown in a 96-well plate. All assays were performed in duplicate. OKF6/TERT cells were treated with mPE as above in the presence or absence of IL-1β. Total mRNA was isolated and IL-8 and hBD-2 mRNA levels were quantified by QPCR normalized to β2-Microglobulin. Levels are shown relative to the no-mPE sample for each group. The experiment was carried out in triplicate; error bars represent±SD. […] To determine whether this was due to an inhibition of NF-κB activation, gingival epithelial cells were treated with mPE in the presence or absence of 100 ng/ml IL-1β, and IκB phosphorylation levels were quantified using the CASE assay (SA Biosciences, MD), and quantified relative to total IκB levels). In particular, OKF6/TERT cells were grown in 96-well plates, treated with 100 ng/ml IL-1β for 2 or 4 hours in the presence of 0, 2 or 5 μg/ml mPE. […]

[10] = test system: IL-8 secretion, THP-1 cells; assay: IL-1β-induced IL-8 secretion (ELISA) in THP-1 cells; type: cell-based, Human
Protocol: as §1, §2, §3

[11] = test system: A. actinomycetemcomitans; conditions: planktonic form; cited from earlier work
[12] = rhIL-1β 100 ng/ml, mPE 0, 2, or 5 ng/ml as printed, FIG. 3

NCCc1cc(Br)cc(C#Cc2cccc(C#Cc3cc(Br)cc(CCN)c3)c2)c1 [mPE]
LPS-mediated TNF-α production [1]: inhibited
IL-8 mRNA levels [2]: inhibitory effect is at the level of gene expression
activity against biofilm cultures [3]: potent activity
concentration at which biofilm and metabolic activity decrease to a baseline ([3]; 24 hours anaerobic, XTT and crystal violet, FIG. 2): 4 to 8 µg/mL
cell viability [4]: 93-96%
concentration sufficient to inhibit IL-1β-induced secretion of IL-8 ([5]; gingival epithelial cells): 2 µg/mL
inhibition of IL-8 secretion [5, 12]: dose-dependent inhibition
MIC [6]: 2.5 µg/mL (≈ 4.79 µM)
reduction of metabolic activity (XTT) ([7]; 2-hour exposure, 16 ng/ml, FIG. 1C): 60%
antimicrobial activity against biofilms (XTT metabolic activity) ([7]; 24 hours, FIG. 1A): potent antimicrobial activity
reduction in viable colonies (plating) and biomass (crystal violet) ([7]; FIG. 1B): reduction in viable colonies paralleled the results from the XTT assay
activity against oral pathogens [8]: active
IL-1β-stimulated phosphorylated IκB levels / total IκB [9]: reduction in activation of NF-κB; also recorded: rapid, dose-dependent reduction
concentration sufficient to inhibit IL-1β-induced secretion of IL-8 ([10]; THP-1 cells): 2 µg/mL
inhibition of IL-8 secretion [10, 12]: dose-dependent inhibition
MIC [11]: 0.4 µg/mL (≈ 0.766 µM)
